One assay concerns the target T1, human MC5R (Homo sapiens, UniProt P33032).
T1 construct: purchased Perkin Elmer RBXMC5M400UA
Put plainly: Human MC5R radioligand binding assay ([125I] NDP-MSH displacement, hMC5R membranes). As to conditions: hMC5R assay as in Example 102; compounds tested as trifluoroacetate or hydrochloride salts, or as free base. Summed up:
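Bound ligand collected by filtration on PEI-soaked GF/A filters and counted. Data fitted to a single-site competition model with fixed Hill coefficient to give EC50.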
T1 sequence (P33032 whole entry): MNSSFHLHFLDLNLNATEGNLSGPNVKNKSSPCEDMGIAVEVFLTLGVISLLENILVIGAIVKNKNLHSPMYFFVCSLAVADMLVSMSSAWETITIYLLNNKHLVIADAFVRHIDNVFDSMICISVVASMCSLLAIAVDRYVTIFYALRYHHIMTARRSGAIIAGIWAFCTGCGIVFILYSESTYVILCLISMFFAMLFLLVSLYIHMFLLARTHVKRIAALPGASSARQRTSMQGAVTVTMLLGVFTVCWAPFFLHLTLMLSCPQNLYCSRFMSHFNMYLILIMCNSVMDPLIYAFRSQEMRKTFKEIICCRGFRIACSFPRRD
As for `NCCCC[C@@H]1N[C@H](CNC(=O)Cc2ccc3ccccc3c2)CCN(Cc2ccc3ccccc3c2)C1=O` [Compound 123, N-(((3S,5S)-3-(4-aminobutyl)-1-(naphthalen-2-ylmethyl)-2-oxo-1,4-diazepan-5-yl)methyl)-2-(naphthalen-2-yl)acetamide], the IC50 (as a rule, the concentration needed to halve the response being measured) was below 10000 nM. Regarding `N=C(N)NCCC[C@@H]1N[C@H](CNC(=O)c2cnc3ccccc3n2)CCN(CC(c2ccccc2)c2ccccc2)C1=O` [Compound 113, N-(((3S,5S)-1-(2,2-diphenylethyl)-3-(3-guanidinopropyl)-2-oxo-1,4-diazepan-5-yl)methyl)quinoxaline-2-carboxamide], the IC50 is below 1000 nM.

`O=C(/C=C/c1ccc(Cl)cc1)NC[C@@H]1CCN(CC(c2ccccc2)c2ccccc2)C(=O)[C@H](CCC(=O)N2CCCCC2)N1` [Compound 318, (E)-3-(4-chlorophenyl)-N-(((3S,5S)-1-(2,2-diphenylethyl)-2-oxo-3-(3-oxo-3-(piperidin-1-yl)propyl)-1,4-diazepan-5-yl)methyl)acrylamide]: the IC50 is below 100 nM.

Turning to `N=C(N)NCCC[C@@H]1N[C@H](CNC(=O)c2ccc3cc(N)ccc3c2)CCN(CC(c2ccccc2)c2ccccc2)C1=O` [Compound 218, 6-amino-N-(((3S,5S)-1-(2,2-diphenylethyl)-3-(3-guanidinopropyl)-2-oxo-1,4-diazepan-5-yl)methyl)-2-naphthamide], the IC50 was below 10000 nM. On the same count and under the same terms, the value for `Cc1ccc(C(=O)NC[C@@H]2CCN(CC(c3ccccc3)c3ccccc3)C(=O)[C@H](CCN3CCCCC3)N2)cc1C` [Compound 285, N-(((3S,5S)-1-(2,2-diphenylethyl)-2-oxo-3-(2-(piperidin-1-yl)ethyl)-1,4-diazepan-5-yl)methyl)-3,4-dimethylbenzamide] was below 100 nM; that for `N=C(N)NCCC[C@@H]1N[C@H](CNC(=O)c2ccc3[nH]cnc3c2)CCN(CC(c2ccccc2)c2ccccc2)C1=O` [Compound 149, N-(((3S,5S)-1-(2,2-diphenylethyl)-3-(3-guanidinopropyl)-2-oxo-1,4-diazepan-5-yl)methyl)-1H-benzo[d]imidazole-5-carboxamide] was below 10000 nM. The same measure, in the same setting: the value for `O=C(/C=C/c1ccc(Cl)cc1)NC[C@@H]1CCN(Cc2cc(Cl)cc(Cl)c2)C(=O)[C@H](CCN2CCCCC2)N1` [Compound 345, (E)-3-(4-chlorophenyl)-N-(((3S,5S)-1-(3,5-dichlorobenzyl)-2-oxo-3-(2-(piperidin-1-yl)ethyl)-1,4-diazepan-5-yl)methyl)acrylamide] was below 10 nM; that for `N=C(N)NCCC[C@@H]1N[C@H](CNC(=O)c2ccc3ccccc3n2)CCN(CC(c2ccccc2)c2ccccc2)C1=O` [Compound 116, N-(((3S,5S)-1-(2,2-diphenylethyl)-3-(3-guanidinopropyl)-2-oxo-1,4-diazepan-5-yl)methyl)quinoline-2-carboxamide] was below 1000 nM; that for `N=C(N)NCCC[C@@H]1N[C@H](CNC(=O)c2cc3ccccc3cn2)CCN(CC(c2ccccc2)c2ccccc2)C1=O` [Compound 114, N-(((3S,5S)-1-(2,2-diphenylethyl)-3-(3-guanidinopropyl)-2-oxo-1,4-diazepan-5-yl)methyl)isoquinoline-3-carboxamide] was below 1000 nM. On the same count and under the same terms, next, `NCCC[C@@H]1N[C@H](CNC(=O)c2ccc(-n3cccc3)cc2)CCN(CC(c2ccccc2)c2ccccc2)C1=O` [Compound 238, N-(((3S,5S)-3-(3-aminopropyl)-1-(2,2-diphenylethyl)-2-oxo-1,4-diazepan-5-yl)methyl)-4-(1H-pyrrol-1-yl)benzamide]: below 100 nM.

The assay is the same for the next values; noted with them: hMC5R binding assay as in Example 102; compounds tested as trifluoroacetate or hydrochloride salts, or as free base.
For `CC[C@H](CN1CC[C@H](CNC(=O)c2ccc3cc(Cl)ccc3c2)N[C@H](CC(C)(C)N)C1=O)c1ccccc1` [Compound 494, N-(((3R,5R)-3-(2-amino-2-methylpropyl)-2-oxo-1-((S)-2-phenylbutyl)-1,4-diazepan-5-yl)methyl)-6-chloro-2-naphthamide], the IC50 was below 10000 nM.

Source of the values: patent EP2257297B1, “COMPOUNDS FOR USE IN THE TREATMENT OF ACNE, SEBORRHOEA AND SEBHORROEIC DERMATITIS, OR FOR REDUCING SEBUM SECRETION” (priority 2008, dated 2009).
